Data on three compounds can be found in US20110212053A1, “PHOSPHATIDYLINOSITOL 3 KINASE INHIBITORS” (priority 2008, published 2011).

SMILES strings stand for the structures. Where “and” joins values, the source holds several entries; their conditions need not be identical. Identical values can stand only once. Some results are limits rather than exact numbers.

In general, IC50 refers to the midpoint of a concentration-inhibition curve.

The target in one assay is T1, PI3Kδ (Homo sapiens, UniProt O00329).
T1 construct: purchased Invitrogen or Millipore
T1 sequence (O00329 whole entry): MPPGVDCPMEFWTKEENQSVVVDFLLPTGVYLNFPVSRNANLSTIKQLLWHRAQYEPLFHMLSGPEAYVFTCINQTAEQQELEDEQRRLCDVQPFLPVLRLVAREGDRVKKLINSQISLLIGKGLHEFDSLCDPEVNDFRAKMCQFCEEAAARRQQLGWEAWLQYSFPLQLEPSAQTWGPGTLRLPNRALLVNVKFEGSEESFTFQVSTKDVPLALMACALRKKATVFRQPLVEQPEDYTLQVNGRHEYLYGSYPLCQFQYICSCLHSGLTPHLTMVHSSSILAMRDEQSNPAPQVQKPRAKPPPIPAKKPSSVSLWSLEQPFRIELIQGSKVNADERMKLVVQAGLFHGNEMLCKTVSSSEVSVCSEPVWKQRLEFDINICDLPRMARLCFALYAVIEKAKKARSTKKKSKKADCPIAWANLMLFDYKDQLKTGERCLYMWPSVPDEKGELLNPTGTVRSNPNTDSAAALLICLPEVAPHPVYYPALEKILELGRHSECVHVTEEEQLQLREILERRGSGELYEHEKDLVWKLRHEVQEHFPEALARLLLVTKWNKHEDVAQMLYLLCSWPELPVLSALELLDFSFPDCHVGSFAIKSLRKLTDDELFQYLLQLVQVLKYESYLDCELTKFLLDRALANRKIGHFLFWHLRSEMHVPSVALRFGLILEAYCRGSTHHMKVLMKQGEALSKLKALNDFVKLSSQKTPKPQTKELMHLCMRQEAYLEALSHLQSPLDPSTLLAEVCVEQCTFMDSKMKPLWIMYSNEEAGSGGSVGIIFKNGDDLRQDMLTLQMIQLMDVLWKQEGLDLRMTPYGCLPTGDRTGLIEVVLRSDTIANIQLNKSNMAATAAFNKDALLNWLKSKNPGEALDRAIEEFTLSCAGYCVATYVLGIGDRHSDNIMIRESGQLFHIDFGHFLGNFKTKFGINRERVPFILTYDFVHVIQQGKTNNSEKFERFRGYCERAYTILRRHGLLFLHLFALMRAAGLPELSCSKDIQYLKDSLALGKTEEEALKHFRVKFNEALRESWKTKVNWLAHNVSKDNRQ
T1 sequence (P27986 whole entry partner): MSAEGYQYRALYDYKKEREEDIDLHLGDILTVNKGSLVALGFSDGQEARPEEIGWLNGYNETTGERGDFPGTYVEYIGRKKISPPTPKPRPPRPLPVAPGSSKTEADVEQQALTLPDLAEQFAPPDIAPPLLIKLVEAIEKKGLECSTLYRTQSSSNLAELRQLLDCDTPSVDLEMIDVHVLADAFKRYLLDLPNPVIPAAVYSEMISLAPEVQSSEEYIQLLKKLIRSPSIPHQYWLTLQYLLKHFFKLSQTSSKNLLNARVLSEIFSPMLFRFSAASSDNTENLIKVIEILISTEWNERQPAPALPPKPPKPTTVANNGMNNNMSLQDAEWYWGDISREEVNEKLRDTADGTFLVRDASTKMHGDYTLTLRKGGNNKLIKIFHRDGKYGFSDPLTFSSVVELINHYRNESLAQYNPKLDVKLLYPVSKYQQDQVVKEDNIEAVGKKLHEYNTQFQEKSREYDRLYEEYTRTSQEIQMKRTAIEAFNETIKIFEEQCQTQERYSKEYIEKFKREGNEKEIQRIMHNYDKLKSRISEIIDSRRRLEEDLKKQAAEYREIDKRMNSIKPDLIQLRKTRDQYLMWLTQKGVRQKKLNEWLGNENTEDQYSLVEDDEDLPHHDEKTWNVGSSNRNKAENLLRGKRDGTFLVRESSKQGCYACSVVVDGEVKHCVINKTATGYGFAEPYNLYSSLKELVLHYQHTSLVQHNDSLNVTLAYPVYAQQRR
The assay can be described thus: KinaseGLO luminescent PI3-kinase assay, PI3Kδ. The class given is biochemical. The procedure:
(§1) Compound Preparation: KinaseGLO assay: 30× stocks of inhibitors were prepared in DMSO. A 10 mM master stock was prepared and all other stocks were generated by serial dilution of this master stock in DMSO. The final concentration of DMSO in the kinase reaction was 3.3% (v/v).
(§2) PI3-Kinase Assay: The KinaseGLO® Luminescent Kinase Assay (Promega) is a luciferin-luciferase based luminescent assay that utilizes a proprietary thermostable luciferase to quantify the ATP remaining in a solution after a kinase reaction. The luminescent signal generated using KinaseGLO® directly correlates with ATP concentration, and therefore inversely correlates with kinase activity.
(§3) PI3K enzyme sample was thawed and diluted to 100 ng/μL in enzyme dilution buffer (50 mM HEPES, pH7.5, 3.0 mM MgCl2, 1.0 mM EGTA) and stored on ice. PI3Kα enzyme was diluted to a final concentration of 1 ng/μL in reaction buffer (for PI3Kα; 50 mM HEPES, pH7.5, 100 mM NaCl, 2.0 mM DTT, 3.0 mM MgCl2, 1.0 mM EGTA, 10 μM ATP) and gently mixed. 25 μL of this kinase reaction was then aliquoted into test wells in a Microfluor2 white 96-well plate (Thermo Scientific). As a preincubation step, 1 μl of 30× compound dilutions was added to the appropriate test wells to generate a ten point dose-response ranging from 0.0 μM-10 μM inhibitor. […] Luminescent signal was detected using a SpectraMax M5 (Molecular Devices). Maximal luminescence (no PI3K activity/maximal PI3K inhibition) was determined from reaction buffer plus SC-PI substrate only controls. The minimal signal (maximal PI3K activity) was determined by the 0.0 μM compound (DMSO only) control. IC50 values were calculated via non-linear regression using GraphPad Prism data analysis software.
(§4) Compounds were assayed against the Class I PI3Kα, PI3Kβ, PI3Kγ, PI3Kδ, PI3Kα(H1047R) and PI3Kα(E545K) in the KinaseGLO assay as described in Example 2, and against the Class IV PI3K mTOR in the radiometric assay. IC50 values (μM) were determined using 8-10 point half-log dose dilutions and calculated via nonlinear regression analysis using Graphpad Prism data analysis software.
(Kinase-Glo measures the ATP left after a reaction by luminescence.)

The target in a further assay is T2, PI3Kα(H1047R) (Homo sapiens, UniProt P42336, H1047R).
T2 construct: purchased Invitrogen or Millipore
T2 sequence (P42336 whole entry H1047R): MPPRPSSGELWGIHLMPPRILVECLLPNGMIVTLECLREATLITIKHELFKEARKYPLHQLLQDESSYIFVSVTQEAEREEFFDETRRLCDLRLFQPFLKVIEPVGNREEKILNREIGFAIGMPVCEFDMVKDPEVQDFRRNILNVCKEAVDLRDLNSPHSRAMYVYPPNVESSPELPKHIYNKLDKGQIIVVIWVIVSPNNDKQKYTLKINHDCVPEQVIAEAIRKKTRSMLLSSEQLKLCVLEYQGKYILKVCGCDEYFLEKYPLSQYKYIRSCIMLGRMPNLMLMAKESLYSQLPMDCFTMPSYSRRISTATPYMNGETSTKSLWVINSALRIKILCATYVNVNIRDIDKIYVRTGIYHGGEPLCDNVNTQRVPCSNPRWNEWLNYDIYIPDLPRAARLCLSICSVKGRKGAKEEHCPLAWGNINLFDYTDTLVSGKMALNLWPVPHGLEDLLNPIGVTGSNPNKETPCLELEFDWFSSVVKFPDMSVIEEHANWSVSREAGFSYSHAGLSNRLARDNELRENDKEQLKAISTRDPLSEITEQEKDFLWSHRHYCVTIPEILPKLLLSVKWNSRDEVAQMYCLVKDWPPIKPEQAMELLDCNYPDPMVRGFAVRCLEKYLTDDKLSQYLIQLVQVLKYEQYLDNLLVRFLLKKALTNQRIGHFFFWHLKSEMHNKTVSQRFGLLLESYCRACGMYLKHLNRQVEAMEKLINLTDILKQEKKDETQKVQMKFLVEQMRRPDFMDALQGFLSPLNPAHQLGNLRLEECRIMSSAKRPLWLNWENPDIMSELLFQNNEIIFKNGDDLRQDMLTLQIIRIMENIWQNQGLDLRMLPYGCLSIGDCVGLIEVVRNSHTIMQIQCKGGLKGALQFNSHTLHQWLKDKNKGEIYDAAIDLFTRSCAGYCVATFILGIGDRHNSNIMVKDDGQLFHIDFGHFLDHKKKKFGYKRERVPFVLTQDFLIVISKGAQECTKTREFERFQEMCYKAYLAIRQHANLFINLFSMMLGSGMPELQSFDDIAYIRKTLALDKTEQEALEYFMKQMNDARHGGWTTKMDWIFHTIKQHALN
T2 sequence (P27986 whole entry partner): as the sequence (P27986 whole entry partner) above
The assay can be described thus: KinaseGLO luminescent PI3-kinase assay, mutant PI3Kα(H1047R). The class given is biochemical. The procedure: as §1, §2, §3, §4

Assay [1] has as its system p-AKT(S473) in U-87 MG cells. The assay can be described thus: In-cell western blot (cytoblot) of AKT phosphorylation, U-87 MG. The class given is cell-based. As to conditions: Homo sapiens, read-out: IC50 against the p-AKT(S473) phosphorylation site. The procedure:
(§5) Compound Preparation: Cell-based assays: 1000× stocks of inhibitors were prepared in DMSO. A 10 mM master stock was prepared and all other stocks were generated by serial dilution of the master stock in DMSO. The final concentration of DMSO in cell-based assays was 0.1% (v/v).
(§6) In-cell western blot (cytoblot) mechanistic assay; Measurement of AKT phosphorylation: The in-cell western blot assay is a quantitative 96-well immunocytochemistry assay using fixed cells. Phosphorylated AKT is detected and quantified via either enhanced chemiluminescence (ECL) or near infra-red (LI-COR) methods. Log-phase cells (10,000 A549, RKO or 30,000 U-87 MG) were plated in collagen coated, 96 well plates (Nunc) in 200 μL of growth medium (10% FBS/DMEM) and allowed to attach overnight at 37° C. in 5% CO2 incubator. Black 96 well plates were used for ECL assays. White, clear bottomed 96 well plates were used for LI-COR assays. The following day the growth medium was removed. For experiments using U-87 MG cells and RKO cells, the growth medium was replaced with 200 μL of fresh growth medium containing inhibitors dissolved in DMSO. PI3K inhibitors were dosed using half-log dilutions to generate an eight-point dose-response curve from 0.0 μM-10 μM for EC50 determinations, and the final concentration of DMSO in the test wells was 0.1% (v/v). The inhibitor treated cells were then incubated for 1 hour at 37° C. […]
(§7) After the inhibitor incubation phase (with or without IGF-1 stimulation), the medium was aspirated, the cells washed once with Tris-Buffered Saline (TBS) and then fixed in the wells by addition of 200 μL of cold 3.7% (v/v) formaldehyde diluted in TBS to test wells and incubated for 15 minutes at 4° C. […] The wells were then was washed four times with ice-cold TBS-T. Phospho-AKT luminescent signal was detected after a 1 minute incubation of test wells with 100 μL of ECL reagent using a SpectraMax M5 luminometer. (ii) Near-infrared fluorescence detection (LI-COR): After removal of the methanol, wells were blocked with 200 μL of LI-COR blocking buffer for 1 hour at room temperature. […]

In assay [2] the test system is p-AKT(S473) in IGF-1-stimulated A549 cells. The assay can be described thus: In-cell western blot (cytoblot) of AKT phosphorylation, IGF-1-stimulated A549. The format is cell-based. As to conditions: Homo sapiens, read-out: IC50 against the p-AKT(S473) phosphorylation site. The procedure: as §5, §6, §7

Regarding `CC(C)(C#N)c1ccc(-c2n[nH]c3cnc4ccc(-c5cccnc5)cc4c23)cc1` [Compound 1107, 2-methyl-2-(4-(8-(pyridin-3-yl)-3H-pyrazolo[3,4-c]quinolin-1-yl)phenyl)propanenitrile], the IC50 on PI3Kδ was 10 to 35 nM; against PI3Kα(H1047R), 5 to 25 nM; in assay [1], 54 nM; in assay [2] it was 189 nM.
As to `CC(C)(C#N)c1ccc(-c2n[nH]c3cnc4ccc(-c5cnc6ccccc6c5)cc4c23)cc1` [Compound 1078, 2-methyl-2-(4-(8-(quinolin-3-yl)-3H-pyrazolo[3,4-c]quinolin-1-yl)phenyl)propanenitrile], the IC50 against PI3Kδ was < 15 nM and 10 to 35 nM; at PI3Kα(H1047R), more than 25 nM; in assay [1], 88 nM; in assay [2], 43 nM.
For `CC(C)(C#N)c1ccc(-c2n[nH]c3cnc4ccc(-c5ccc6ncccc6c5)cc4c23)cc1` [Compound 1110, 2-methyl-2-(4-(8-(quinolin-6-yl)-3H-pyrazolo[3,4-c]quinolin-1-yl)phenyl)propanenitrile], the IC50 against PI3Kδ is 10 to 35 nM; against PI3Kα(H1047R) it was more than 25 nM; in assay [1] it was 81 nM; in assay [2], 210 nM.
